One compound from patent US11779550B2, “Bisphenol ether derivatives and methods for using the same” (THE UNIVERSITY OF BRITISH COLUMBIA, priority 2015, dated 2023) can be followed below.

Each structure is given as a SMILES string. Read-outs that look alike come from different tables or passages of the source.

For the experiment, the target named is T1, androgen receptor (AR) (Homo sapiens, UniProt P10275, T878A).
T1 construct: endogenous in cells; host or cells: LNCaP
T1 sequence (P10275 1-920 T878A): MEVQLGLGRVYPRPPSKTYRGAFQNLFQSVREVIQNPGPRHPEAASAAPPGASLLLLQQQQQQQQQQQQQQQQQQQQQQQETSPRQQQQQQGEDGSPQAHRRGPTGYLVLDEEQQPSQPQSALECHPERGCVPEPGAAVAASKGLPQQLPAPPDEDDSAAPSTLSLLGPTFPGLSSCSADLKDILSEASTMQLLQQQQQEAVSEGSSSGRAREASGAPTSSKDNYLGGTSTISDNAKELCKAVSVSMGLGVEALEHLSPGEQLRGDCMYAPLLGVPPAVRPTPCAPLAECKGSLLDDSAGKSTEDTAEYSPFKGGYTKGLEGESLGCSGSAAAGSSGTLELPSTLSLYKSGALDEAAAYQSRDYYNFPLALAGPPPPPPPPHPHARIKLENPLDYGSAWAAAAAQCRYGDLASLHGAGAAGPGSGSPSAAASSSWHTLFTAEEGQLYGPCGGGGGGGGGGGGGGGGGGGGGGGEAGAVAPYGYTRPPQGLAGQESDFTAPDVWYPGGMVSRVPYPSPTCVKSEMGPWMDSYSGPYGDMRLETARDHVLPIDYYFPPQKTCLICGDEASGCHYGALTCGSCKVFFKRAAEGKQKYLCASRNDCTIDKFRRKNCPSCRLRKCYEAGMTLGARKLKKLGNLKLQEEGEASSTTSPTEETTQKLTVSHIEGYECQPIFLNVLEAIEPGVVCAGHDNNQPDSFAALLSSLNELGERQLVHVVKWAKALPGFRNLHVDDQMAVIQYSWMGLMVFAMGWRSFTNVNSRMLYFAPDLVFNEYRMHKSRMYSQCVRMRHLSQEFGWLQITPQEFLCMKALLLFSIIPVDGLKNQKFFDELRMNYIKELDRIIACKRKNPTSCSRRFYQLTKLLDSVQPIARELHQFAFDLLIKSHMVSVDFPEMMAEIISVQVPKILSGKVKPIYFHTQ
In words: PSA (6.1 kb)-luciferase reporter assay in LNCaP cells induced with R1881. The experiment is classed as cell-based. Conditions: LNCaP cells transfected with PSA (6.1 kb)-luciferase, 1 h pre-treatment, R1881 (1 nM) 24 h. As to the method:
LNCaP cells were transiently transfected with PSA (6.1 kb)-luciferase for 24 h prior to pre-treatment with compounds of the invention (e.g., Compound 1c) ranging in concentration from 62.5 ng/ml to 1.5 ug/ml for 1 hour before the addition of vehicle, or synthetic androgen, R1881 (1 nM) to induce luciferase production. After 24 h of incubation with R1881, the cells were harvested, and relative luciferase activities were determined. To determine the IC50, treatments were normalized to the predicted maximal activity induction (in the absence of test compounds, vehicle only).

Take `CC(C)(c1ccc(OC[C@H](O)CO)cc1)c1ccc(OC[C@@H](Cl)CO)cc1` [Compound 1c, (R)-3-(4-(2-(4-((S)-2-chloro-3-hydroxypropoxy)phenyl)propan-2-yl)phenoxy)propane-1,2-diol]: the IC50 is 14 µM (Trial 1, read-out: IC50, Trial 1); 19.4 µM (Trial 2, read-out: IC50, Trial 2); 17 µM (Trial 3, read-out: IC50, Trial 3); 15.8 µM (Trial 4, read-out: IC50, Trial 4); 16.7 ± 2.68 µM (average of trials, read-out: Average IC50).

For orientation: IC50 means the concentration that inhibits the measured activity by half.
